Laboratory results as given in patent US10548316B2, “Diarylazole compound and harmful organism control agent” (Nippon Soda Co., Ltd., priority 2015, dated 2020).

Columns and labels:
Format in all cases: in vivo
Spodoptera litura = assay: Efficacy test against Spodoptera litura; conditions: 144 h, cabbage leaves soaked, second-instar larvae, after 6 days, read-out: insect mortality rate
Method: (§1) 5 parts of the compound of the present invention, 93.6 parts of dimethylformamide, and 1.4 parts of polyoxyethylene alkylaryl ether were mixed and dissolved to prepare an emulsion (I) of 5% of the active ingredient.
(§2) The insect mortality rate and the control rate were calculated by the following formula. Insect mortality rate (%)=(number of dead insects/number of sample insects)×100 Prevention rate=[1−(Nt)/(Nc)]×100
(§3) Emulsion (I) was diluted with water so that the concentration of the compound of the present invention reaches 125 ppm. Cabbage leaves were soaked in the diluted liquid for 30 seconds. Then the cabbage leaves were put on Petri dishes, followed by inoculating 5 second-instar larvae of Spodoptera litura. The Petri dishes were placed in a thermostatic chamber with a temperature was 25° C. and a humidity of 60%. Life or death judgement was performed after 6 days were passed, and the insect mortality rate was calculated. The test was repeated twice.

Plutella xylostella = assay: Efficacy test against Plutella xylostella; conditions: 72 h, cabbage leaves soaked, second-instar larvae, after 3 days, read-out: mortality rate
Method: as §1, §2
as §3, with “of Plutella xylostella.” for “of Spodoptera litura.”, “after 3” for “after 6”

Aphis craccivora = assay: Efficacy test against Aphis craccivora; conditions: 96 h, spray on infested cowpea plants, nymphs, 4 days after spraying, read-out: mortality rate
Method: as §1, §2
Cowpea plants were raised in No. 3 pots and the first true leaves were inoculated with Aphis craccivora nymphs. Emulsion (I) was diluted with water so that the concentration of the compound of the present invention reaches 125 ppm, followed by spraying the diluted liquid on the cowpea plants infested with Aphis craccivora nymphs. The cowpea plants were then placed in a thermostatic chamber with a temperature of 25° C. and a humidity of 60%. Life or death judgement was performed after 4 days were passed from the spraying, and the insect mortality rate of Aphis craccivora was calculated. The test was repeated twice.

Phyllotreta striolata = assay: Efficacy test against Phyllotreta striolata; conditions: 168 h, spray on bok choy seedlings, adults, 7 days after releasing, read-out: insect mortality rate
Method: as §1, §2
Emulsion (I) was diluted with water so that the compound of the present invention reaches 125 ppm to prepare a test solution. The above diluted solution was sprayed on bok choy seedlings (seventh true leaf development stage) planted in No. 3 pots. After air-drying, the bok choy seedlings were put in a plastic cup and 10 adult Phyllotreta striolata were released therein. The plastic cup was stored in a thermostatic chamber with a temperature of 25° C. and a humidity of 65%, and life or death judgment was performed 7 days after releasing Phyllotreta triolata, and the insect mortality rate was calculated by the formula. The test was repeated twice.

Musca domestica = assay: Efficacy test against Musca domestica; conditions: 100 ppm on cube sugar, adult female, after 24 hours, read-out: insect mortality rate
Method: as §2
The compound of the present invention was diluted with acetone, followed by dropping to 1 g of cube sugar so that the concentration reaches to 100 ppm. The cube sugar was placed in a plastic cup and 10 adult female Musca domestica were released therein, followed by putting a lid on the cup. The cup was kept at 25° C., and life or death judgement was performed after 24 hours was passed from the releasing of Musca domestica, and the insect mortality rate was calculated by the formula. The test was repeated twice.

Culex pipiens = assay: Efficacy test against Culex pipiens; conditions: Culex pipiens, 24 h, read-out: insect mortality rate
Method: as §1, §2
Emulsion (I) was diluted with water so that the concentration of the compound of the present invention reaches 2 ppm to prepare a chemical solution for test. 20 first-instar larvae of Culex pipiens were released into 100 ml of the chemical solution for test, then the number of dead insects was calculated after 1 day was passed, and the insect mortality rate was calculated by the formula. The test was repeated twice.

Ornithodorus moubata = assay: Feeding effect test against Ornithodorus moubata; conditions: 10 ppm in defibrin blood of sheep; third-nymphs; 14 days after the blood sucking
Method: A DMSO solution of the compound of the present invention was mixed with a defibrin blood of sheep to obtain a mixed solution with a concentration of 10 ppm. 2 ml of this mixed solution was placed in a container and capped with a parafilm membrane. Then, 20 third-nymphs of Ornithodorus moubata ere released to suck the blood through the parafilm membrane for about 30 minutes. Then, the nymphs were transferred to a storage container and incubated in a thermostatic chamber with a temperature of 28° C. and a humidity of 80%, and life or death judgement and developmental stage-investigation was performed 14 days after the blood sucking. The test was repeated twice.

Rhipicephalus microplus = assay: Contact effect test on Rhipicephalus microplus; conditions: larvae, 24 hours after the chemical treatment, read-out: insect mortality rate
Method: A DMSO solution of the compound of the present invention was diluted with water to obtain a test solution with a concentration of 100 ppm. This chemical solution was dropped into a container containing 20 Rhipicephalus microplus larvae, and then incubated in a thermostatic chamber with a temperature of 28° C. and a humidity of 80%. Life or death judgement was performed on the larvae 24 hours after the chemical treatment. The test was repeated twice.

Lucilia cuprina larvae = assay: Contact/feeding effect test on Lucilia cuprina larvae; conditions: 1000 ppm in horse meat, 48 hours, read-out: insect mortality rate
Method: A DMSO solution of the compound of the present invention was mixed with horse meat to obtain a mixture with a concentration of 1000 ppm. 20 Lucilia cuprina larvae were introduced into a test tube with the mixture. The tube was incubated in a thermostatic chamber with a temperature of 28° C. and a humidity of 80%, and life and death judgement was performed on the larvae 48 hours after the start of the test. The test was repeated twice.

Aedes aegypti larvae = assay: Contact/feeding effect test on Aedes aegypti larvae; conditions: final concentration of 10 ppm, first-instar larvae, 48 hours, read-out: insect mortality rate
Method: A DMSO solution of the compound of the present invention was diluted with water to obtain a diluted solution with a concentration of 100 ppm. 10 first-instar larvae of Aedes aegypti were placed in each well of a 96-well microtiter plate together with breeding water, and 1/10 volume of the diluted solution with a concentration of 100 ppm was added so that the test was carried out at a final concentration of 10 ppm. The microtiter plate was incubated in a thermostatic chamber with a temperature of 28° C. and a humidity of 80%, and life or death judgement was performed on the larvae was investigated 48 hours after the chemical treatment. The test was repeated twice.

Pseudaletia separata = assay: Efficacy test against Pseudaletia separata (artificial diet); conditions: in vivo
Method: as §1, §2
0.8 g of commercially available artificial diet (Insecta US, manufactured by Nosan Corporation) and 1 μl of emulsion (1) were well mixed and 0.2 g of the resulting mixture was packed in a plastic test container (1.4 ml) per each treatment group to prepare test feeds.
2 second-instar larvae of Pseudaletia separata were inoculated into each treatment group and sealed with a plastic lid. The plastic test containers were placed in a thermostatic chamber with a temperature of 25° C., and the insect mortality rate and the food intake amount were investigated on the fifth day. The test was repeated twice.
Further, a test under the same conditions except that the compound of the present invention was removed from emulsion (I) was conducted as a solvent control group.

Rhopalosiphum padi = assay: Efficacy test against Rhopalosiphum padi (seed treatment); conditions: 0.1 g compound per 10 g wheat seeds, adults released 7 days after seeding, counted after 6 days
Method: as §2
Nt: number of parasites in spray-treatment area
Nc: number of parasites in control area
0.1 g of each compound of the present invention was diluted with 2 ml of acetone to prepare chemical solutions for test. 10 g of wheat seeds was added to the chemical solution for test and air dried, followed by seedling 100 seeds in a planter. After keeping the planter in a warm room with a temperature of 25° C. for 7 days, 50 adult Rhopalosiphum padi were released in the planter. The number of surviving parasitized Rhopalosiphum padi was investigated after 6 days were passed, and the prevention rate was calculated by the formula. The test was repeated twice.

| Compound | mortality at 125 ppm (Spodoptera litura) | mortality at 125 ppm (Plutella xylostella) | mortality at 125 ppm (Aphis craccivora) | mortality at 125 ppm (Phyllotreta striolata) | mortality at 100 ppm (Musca domestica) | mortality at 2 ppm (Culex pipiens) | insect mortality rate (Ornithodorus moubata) | mortality at 100 ppm (Rhipicephalus microplus) | mortality at 1000 ppm (Lucilia cuprina larvae) | mortality at 10 ppm (Aedes aegypti larvae) | insect mortality rate (Pseudaletia separata) | prevention rate (Rhopalosiphum padi) |
| --- | --- | --- | --- | --- | --- | --- | --- | --- | --- | --- | --- | --- |
| CCS(=O)(=O)c1cc(C(F)(F)F)ccc1-n1ncc(-c2ccc(OC(F)(F)F)cc2)c1N [Compound 1-12, 1-(2-(ethylsulfonyl)-4-(trifluoromethyl)phenyl)-4-(4-(trifluoromethoxy)phenyl)-1H-pyrazol-5-amine] | ≥ 80% | ≥ 80% | ≥ 80% | ≥ 80% | ≥ 80% | 100% | ≥ 90% | ≥ 90% | ≥ 90% | ≥ 90% |  |  |
| CCS(=O)(=O)c1cc(C(F)(F)F)ccc1-n1ncc(-c2ccc(OC(F)(F)F)cc2)c1Cl [Compound 1-17, 5-chloro-1-(2-(ethylsulfonyl)-4-(trifluoromethyl)phenyl)-4-(4-(trifluoromethoxy)phenyl)-1H-pyrazole] | ≥ 80% | ≥ 80% | ≥ 80% | ≥ 80% |  |  |  |  |  |  |  |  |
| CCS(=O)(=O)c1cc(C(F)(F)F)ccc1-n1ncc(-c2ccc(C(F)(F)C(F)(F)F)nc2)c1N [Compound 1-33] |  |  |  |  |  |  |  |  |  |  | 100% | ≥ 80% |
